Source: patent US20250230193A1, “CYCLIC COMPOUND HAVING SELECTIVE KRAS INHIBITORY EFFECT ON HRAS AND NRAS” (CHUGAI SEIYAKU KABUSHIKI KAISHA, priority 2022, published 2025)

Legend:
[1] = target: GDP-bound NRAS wild-type protein (Homo sapiens, UniProt P01111); test: Binding to NRAS by surface plasmon resonance (SPR), Single Cycle Kinetics; settings: SPR; KD ratio class
[2] = target: GDP-bound HRAS wild-type protein (Homo sapiens, UniProt P01112); test: Binding to HRAS by surface plasmon resonance (SPR), Single Cycle Kinetics; settings: SPR; KD ratio class
[3] = tested on: human lung cancer strain NCI-H441; test: cells; settings: NCI-H441, 96 h, read-out: NCI-H441 IC50 (nM)

Sequence of GDP-bound NRAS wild-type protein (P01111 whole entry): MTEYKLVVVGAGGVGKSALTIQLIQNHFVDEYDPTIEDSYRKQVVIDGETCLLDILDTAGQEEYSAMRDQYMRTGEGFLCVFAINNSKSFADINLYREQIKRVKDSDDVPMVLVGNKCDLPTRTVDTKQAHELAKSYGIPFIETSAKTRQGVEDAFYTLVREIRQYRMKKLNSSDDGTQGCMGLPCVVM
Sequence of GDP-bound HRAS wild-type protein (P01112 whole entry): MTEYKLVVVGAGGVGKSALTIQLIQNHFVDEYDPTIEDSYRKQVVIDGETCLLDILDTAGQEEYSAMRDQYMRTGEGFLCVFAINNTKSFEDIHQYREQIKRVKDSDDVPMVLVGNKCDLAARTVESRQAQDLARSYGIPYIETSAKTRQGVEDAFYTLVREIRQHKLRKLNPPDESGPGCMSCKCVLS

Compound | IC50 [3] [nM] | NRAS/KRAS (ratio of KD value for GDP-bound NRAS wild-type protein to KD value for KRAS) [1] | HRAS/KRAS (ratio of KD value for GDP-bound HRAS wild-type protein to KD value for KRAS) [2]
CCO[C@@H]1C[C@H]2C(=O)NC3(CCC3)C(=O)N(C)[C@@H](C(CC)CC)C(=O)N(C)[C@H](C(=O)N(C)C)CC(=O)N(C)[C@@H](CC3CCCC3)C(=O)N[C@@H]([C@@H](C)CC)C(=O)N(C)CC(=O)N(C)[C@H]3C/C=C\CCN(C3=O)[C@@H](Cc3ccc(C(F)(F)F)cc3)C(=O)N(C)CC(=O)N[C@@H](CCc3ccc(Cl)c(Cl)c3)C(=O)N2C1 [PP1220] | 22.2 | AA (a compound having 20 or more is denoted as AA) | A (a compound having 10 or more and less than 20 is denoted as A)
CCO[C@@H]1C[C@H]2C(=O)NC3(CCC3)C(=O)N(C)[C@@H](C3CCCC3)C(=O)N(C)[C@H](C(=O)N3CCOCC3)CC(=O)N(C)[C@@H](C)C(=O)N[C@@H]([C@@H](C)CC)C(=O)N(C)CC(=O)N(C)[C@H]3C/C=C\CCN(C3=O)[C@@H](Cc3ccc(C(F)(F)F)cc3)C(=O)N(C)CC(=O)N[C@@H](CCc3cc(F)c(C(F)(F)F)c(F)c3)C(=O)N2C1 [PP1284] | 54.8 | AA (a compound having 20 or more is denoted as AA) | A (a compound having 10 or more and less than 20 is denoted as A)
CCO[C@@H]1C[C@H]2C(=O)NC3(CCC3)C(=O)N(C)[C@@H](C3CCCC3)C(=O)N(C)[C@H](C(=O)N(C)C)CC(=O)N(C)[C@@H](CC3CC3)C(=O)N[C@@H]([C@@H](C)CC)C(=O)N(C)CC(=O)N(C)[C@H]3C/C=C\CCN(C3=O)[C@@H](Cc3ccc(C(F)(F)F)cc3)C(=O)N(C)CC(=O)N[C@@H](CCc3ccc4sccc4c3)C(=O)N2C1 [PP1260] | 60.4 | A (a compound having 10 or more and less than 20 is denoted as A) | A (a compound having 10 or more and less than 20 is denoted as A)
CCO[C@@H]1C[C@H]2C(=O)NC3(CCC3)C(=O)N(C)[C@@H](C3CCCC3)C(=O)N(C)[C@H](C(=O)N(C)C)CC(=O)N(C)[C@@H](CC)C(=O)N[C@@H]([C@@H](C)CC)C(=O)N(C)CC(=O)N(C)[C@H]3C/C=C\CCN(C3=O)[C@@H](Cc3ccc(C(F)(F)F)cc3)C(=O)N(C)CC(=O)N[C@@H](CCc3cc(F)c(Cl)c(F)c3)C(=O)N2C1 [PP1262] | 56.7 | A (a compound having 10 or more and less than 20 is denoted as A) | B (a compound having 3 or more and less than 10 is denoted as B)
CCC[C@H]1C(=O)N[C@@H]([C@@H](C)CC)C(=O)N(C)CC(=O)N(C)[C@H]2C/C=C\CCN(C2=O)[C@@H](Cc2ccc(C(F)(F)F)cc2)C(=O)N(C)CC(=O)N[C@@H](CCc2cc(F)c(C(F)(F)F)c(F)c2)C(=O)N2C[C@H](OCC)C[C@H]2C(=O)NC2(CCC2)C(=O)N(C)[C@@H](C2CCCC2)C(=O)N(C)[C@H](C(=O)N2CCOCC2)CC(=O)N1C [PP1288] | 22.2 | AA (a compound having 20 or more is denoted as AA) | A (a compound having 10 or more and less than 20 is denoted as A)
CCO[C@@H]1C[C@H]2C(=O)NC3(CCCCC3)C(=O)N(C)[C@@H](C3CCCC3)C(=O)N(C)[C@H](C(=O)N(C)C)CC(=O)N(C)[C@@H](CC)C(=O)N[C@@H]([C@@H](C)CC)C(=O)N(C)CC(=O)N(C)[C@H]3C/C=C\CCN(C3=O)[C@@H](Cc3ccc(C(F)(F)F)cc3)C(=O)N(C)CC(=O)N[C@@H](CCc3cc(F)c(C(F)(F)F)c(F)c3)C(=O)N2C1 [PP1277] | 79.8 | A (a compound having 10 or more and less than 20 is denoted as A) | A (a compound having 10 or more and less than 20 is denoted as A)
CCC[C@H]1C(=O)N[C@@H]([C@@H](C)CC)C(=O)N(C)CC(=O)N(C)[C@H]2C/C=C\CCN(C2=O)[C@@H](Cc2ccc(C(F)(F)F)cc2)C(=O)N(C)CC(=O)N[C@@H](CCc2cc(F)c(C(F)(F)F)c(F)c2)C(=O)N2C[C@H](OCC)C[C@H]2C(=O)NC2(CCC2)C(=O)N(C)[C@@H](C2CCCC2)C(=O)N(C)[C@H](C(=O)N2CCCCC2)CC(=O)N1C [PP1294] | 10 | A (a compound having 10 or more and less than 20 is denoted as A) | A (a compound having 10 or more and less than 20 is denoted as A)

Now from value to compound, other results behind:

IC50 [3] [nM] | Compound | NRAS/KRAS (ratio of KD value for GDP-bound NRAS wild-type protein to KD value for KRAS) [1] | HRAS/KRAS (ratio of KD value for GDP-bound HRAS wild-type protein to KD value for KRAS) [2]
2 | CC[C@H](C)[C@@H]1NC(=O)[C@H](CC2CCCC2)N(C)C(=O)C[C@@H](C(=O)N(C)C)N(C)C(=O)[C@H](C2CCCC2)N(C)C(=O)C2(CCC2)NC(=O)[C@@H]2C[C@@H](F)CN2C(=O)[C@H](CCc2cc(F)c(C(F)(F)F)c(F)c2)NC(=O)CN(C)C(=O)[C@H](Cc2ccc(C(F)(F)F)cc2)N2CC/C=C\C[C@@H](C2=O)N(C)C(=O)CN(C)C1=O [PP1502] | A (a compound having 10 or more and less than 20 is denoted as A) | A (a compound having 10 or more and less than 20 is denoted as A)
29.3 | CC[C@H](C)[C@@H]1NC(=O)[C@H](CC(C)C)N(C)C(=O)C[C@@H](C(=O)N2CCOCC2)N(C)C(=O)[C@H](C2CCCC2)N(C)C(=O)C2(CCC2)NC(=O)[C@@H]2CCCN2C(=O)[C@H](CCc2cc(F)c(C(F)(F)F)c(F)c2)NC(=O)CN(C)C(=O)[C@H](Cc2ccc(C(F)(F)F)cc2)N2C[C@H](C)[C@H](C)C[C@@H](C2=O)N(C)C(=O)[C@@H]2CCN2C1=O [PP1367] | A (a compound having 10 or more and less than 20 is denoted as A) | B (a compound having 3 or more and less than 10 is denoted as B)
34.8 | CC[C@H](C)[C@@H]1NC(=O)[C@H](CC2CCC2)N(C)C(=O)C[C@@H](C(=O)N2CCOCC2)N(C)C(=O)[C@H](C2CCCC2)N(C)C(=O)C2(CCC2)NC(=O)[C@@H]2CCCN2C(=O)[C@H](CCc2ccc(C(F)(F)F)c(Cl)c2)NC(=O)CN(C)C(=O)[C@H](Cc2ccc(C(F)(F)F)cc2)N2C[C@H](C)CC[C@@H](C2=O)N(C)C(=O)[C@@H]2CCN2C1=O [PP1345] | A (a compound having 10 or more and less than 20 is denoted as A) | B (a compound having 3 or more and less than 10 is denoted as B)
102 | CCO[C@@H]1C[C@H]2C(=O)NC3(CCC3)C(=O)N(C)[C@@H](C3CCCC3)C(=O)N(C)[C@H](C(=O)N(C)C)CC(=O)N(C)[C@@H](CC3CC3)C(=O)N[C@@H]([C@@H](C)CC)C(=O)N(C)CC(=O)N(C)[C@H]3C/C=C\CCN(C3=O)[C@@H](Cc3ccc(F)cc3)C(=O)N(C)CC(=O)N[C@@H](CCc3ccc(Cl)c(Cl)c3)C(=O)N2C1 [PP1478] | A (a compound having 10 or more and less than 20 is denoted as A) | A (a compound having 10 or more and less than 20 is denoted as A)
15.8 | CC[C@H](C)[C@@H]1NC(=O)[C@H](CC)N(C)C(=O)C[C@@H](C(=O)N(C)C)N(C)C(=O)[C@H](C2CCCC2)N(C)C(=O)C2(CCCC2)NC(=O)[C@@H]2CCCN2C(=O)[C@H](CCc2cc(F)c(C(F)(F)F)c(F)c2)NC(=O)CN(C)C(=O)[C@H](Cc2ccc(C(F)(F)F)cc2)N2C[C@H](C)CC[C@@H](C2=O)N(C)C(=O)CN(C)C1=O [PP1382] | B (a compound having 3 or more and less than 10 is denoted as B) | B (a compound having 3 or more and less than 10 is denoted as B)
28.1 | CC[C@H](C)[C@@H]1NC(=O)[C@H](CC2CCCC2)N(C)C(=O)C[C@@H](C(=O)N(C)C)N(C)C(=O)[C@H](C2CCCC2)N(C)C(=O)C2(CCC2)NC(=O)[C@@H]2C[C@@H](C(F)(F)F)CN2C(=O)[C@H](CCc2cc(F)c(C(F)(F)F)c(F)c2)NC(=O)CN(C)C(=O)[C@H](Cc2ccc(F)cc2)N2CC/C=C\C[C@@H](C2=O)N(C)C(=O)CN(C)C1=O [PP1508] | A (a compound having 10 or more and less than 20 is denoted as A) | A (a compound having 10 or more and less than 20 is denoted as A)
465 | CCO[C@@H]1C[C@H]2C(=O)NC3(CCC3)C(=O)N(C)[C@@H](C3CCCC3)C(=O)N(C)[C@H](C(=O)N(C)C)CC(=O)N(C)[C@@H](CC(C)C)C(=O)N[C@@H]([C@@H](C)CC)C(=O)N(C)CC(=O)N(C)[C@H]3C/C=C\CCN(C3=O)[C@@H](Cc3ccc(F)cc3)C(=O)N(C)CC(=O)N[C@@H](CCc3ccc4sccc4c3)C(=O)N2C1 [PP1427] | A (a compound having 10 or more and less than 20 is denoted as A) | B (a compound having 3 or more and less than 10 is denoted as B)
178 | CCO[C@@H]1C[C@H]2C(=O)NC3(CCCC3)C(=O)N(C)[C@@H](C(CC)CC)C(=O)N(C)[C@H](C(=O)N3CCCC3)CC(=O)N(C)[C@@H](C)C(=O)N[C@@H]([C@@H](C)CC)C(=O)N(C)CC(=O)N(C)[C@H]3C/C=C\CCN(C3=O)[C@@H](CC3CCCCC3)C(=O)N(C)CC(=O)N[C@@H](CCc3cc(F)c(C(F)(F)F)c(F)c3)C(=O)N2C1 [PP1435] | A (a compound having 10 or more and less than 20 is denoted as A) | A (a compound having 10 or more and less than 20 is denoted as A)
